This is an account of results in PMC10062709, “Fluorescence based HTS-compatible ligand binding assays for dopamine D3 receptors in baculovirus preparations and live cells” (Frontiers in Molecular Biosciences, 2023).

The target of the experiment is T1, human D3 receptor (Homo sapiens, UniProt P35462).
T1 construct: host or cells: Sf9 cells; final budded baculovirus production in Mimic Sf9 insect cells
The experiment can be described thus: Fluorescence anisotropy competition binding with CELT-419 and D3 receptor budded baculoviruses. Conditions: FA competition with 0.5 nM CELT-419. Background: In fluorescence polarisation assays a small probe gives low polarisation when free and higher when bound to something large.

SMILES strings stand for the structures.

T1 sequence (P35462 whole entry): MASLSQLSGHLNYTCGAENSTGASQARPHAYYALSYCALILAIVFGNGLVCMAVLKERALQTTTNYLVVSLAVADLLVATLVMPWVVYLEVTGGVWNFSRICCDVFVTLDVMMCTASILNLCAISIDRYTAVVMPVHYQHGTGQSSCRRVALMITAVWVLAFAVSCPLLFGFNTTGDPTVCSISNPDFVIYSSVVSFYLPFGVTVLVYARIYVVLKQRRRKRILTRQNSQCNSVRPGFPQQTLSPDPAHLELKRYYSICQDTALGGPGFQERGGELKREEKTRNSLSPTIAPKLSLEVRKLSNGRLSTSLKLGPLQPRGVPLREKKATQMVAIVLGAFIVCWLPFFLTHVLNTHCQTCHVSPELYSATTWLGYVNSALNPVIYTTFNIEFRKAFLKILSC
Description: The competitive ligand dilutions were done on the measurement plate. Also, a point with no competitive ligand was included and for blank correction, a point with only BBV was included. Measurements were carried out with 5 min intervals for 5 h at 27 °C. In all cases, BBV was added as the last component to initiate the ligand binding process.
To fit the Log(IC50) change in time from the competition binding experiments, a single-phase exponential decay equation with a constant corresponding to the equilibrium state was used.

Consider `CN1CCc2cccc3c2[C@H]1Cc1ccc(O)c(O)c1-3` [Apomorphine], for which the “Log(IC50) values change in time” value is “increased in time”.
